Results from patent US20170190671A1, “BIS(ARYL)CATECHOL DERIVATIVES AS HERBICIDES” (E I DU PONT DE NEMOURS AND COMPANY, priority 2014, published 2017).

Legend:
Type in all cases: in vivo
[1] = system: ducksalad (Heteranthera limosa); assay: Test B flooded paddy; details: Heteranthera limosa, 336 h; 250 g ai/ha, Flood, 13 to 15 days, scale 0 (no effect) to 100 (complete control); read-out: Plant response rating, Ducksalad
How it was run: (§1)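 Flooded 3 cm over soil; compound into paddy water; depth kept constant. Greenhouse 13–15 d.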

[2] = system: sedge, umbrella (small-flower umbrella sedge, Cyperus difformis); assay: Test B flooded paddy; details: Cyperus difformis, 336 h; 250 g ai/ha, Flood, 13 to 15 days, scale 0 (no effect) to 100 (complete control); read-out: Plant response rating, Sedge, Umbrella
How it was run: as §1

[3] = system: barnyardgrass (Echinochloa crus-galli); assay: Test B flooded paddy; details: Echinochloa crus-galli, 336 h; 250 g ai/ha, Flood, 13 to 15 days, scale 0 (no effect) to 100 (complete control); read-out: Plant response rating, Barnyardgrass
How it was run: as §1

[4] = system: rice (Oryza sativa); assay: Test B flooded paddy; details: Oryza sativa, 336 h; 250 g ai/ha, Flood, 13 to 15 days, scale 0 (no effect) to 100 (complete control); read-out: Plant response rating, Rice
How it was run: as §1

[5] = system: pigweed (Amaranthus retroflexus); assay: Test A preemergence; details: Amaranthus retroflexus, pre-emergence, 240 h; for pest or weed control at 125 g/ha: 125 g ai/ha; for pest or weed control at 500 g/ha: 500 g ai/ha
How it was run: (§2)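 Injury scores run from 0, no effect, to 100, complete control, judged by eye against untreated plants roughly 10 days after treatment. Chemicals carried a surfactant in a non-phytotoxic solvent and went onto loam–sand soil preemergence or onto one- to two-leaf seedlings postemergence.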

[6] = system: barnyardgrass (Echinochloa crus-galli); assay: Test A preemergence; details: Echinochloa crus-galli, pre-emergence, 240 h, 0 to 100 scale, read-out: Plant response rating, Barnyardgrass; for pest or weed control at 125 g/ha: 125 g ai/ha; for pest or weed control at 500 g/ha: 500 g ai/ha
How it was run: as §2

[7] = system: giant foxtail (Setaria faberii); assay: Test A preemergence; details: Setaria faberi, pre-emergence, 240 h; for pest or weed control at 125 g/ha: 125 g ai/ha; for pest or weed control at 500 g/ha: 500 g ai/ha
How it was run: as §2

[8] = system: pigweed (Amaranthus retroflexus); assay: Test A postemergence; details: Amaranthus retroflexus, post-emergence, 240 h, 0 to 100 scale, read-out: Plant response rating, Pigweed; for pest or weed control at 125 g/ha: 125 g ai/ha; for pest or weed control at 500 g/ha: 500 g ai/ha
How it was run: as §2

[9] = system: corn (Zea mays); assay: Test A postemergence; details: Zea mays, post-emergence, 240 h, 0 to 100 scale; for Corn plant response rating (crop injury, 0 = no effect, 100 = complete kill) at 125 g/ha: 125 g ai/ha; for Corn plant response rating (crop injury, 0 = no effect, 100 = complete kill) at 500 g/ha: 500 g ai/ha
How it was run: as §2

[10] = system: barnyardgrass (Echinochloa crus-galli); assay: Test A postemergence; details: Echinochloa crus-galli, post-emergence, 240 h, 0 to 100 scale, read-out: Plant response rating, Barnyardgrass; for pest or weed control at 125 g/ha: 125 g ai/ha; for pest or weed control at 500 g/ha: 500 g ai/ha
How it was run: as §2

[11] = system: giant foxtail (Setaria faberii); assay: Test A postemergence; details: Setaria faberi, post-emergence, 240 h, 0 to 100 scale, read-out: Plant response rating, Foxtail, Giant; for pest or weed control at 125 g/ha: 125 g ai/ha; for pest or weed control at 500 g/ha: 500 g ai/ha
How it was run: as §2

[12] = system: wheat (Triticum aestivum); assay: Test A postemergence; details: Triticum aestivum, post-emergence, 240 h, 0 to 100 scale, read-out: Plant response rating, Wheat; for plant injury at 125 g/ha: 125 g ai/ha; for plant injury at 500 g/ha: 500 g ai/ha
How it was run: as §2

[13] = system: morningglory (Ipomoea coccinea); assay: Test C postemergence; details: Ipomoea, post-emergence, 336 h, Postemergence, scale 0 to 100, read-out: Plant response rating, Morningglory; for pest or weed control at 31 g/ha: 31 g ai/ha; for pest or weed control at 62 g/ha: 62 g ai/ha; for pest or weed control at 125 g/ha: 125 g ai/ha
Excerpt: (§3) Seeds of plant species selected from blackgrass (Alopecurus myosuroides), Italian ryegrass (Lolium multiflorum), winter wheat (Triticum aestivum), galium (catchweed bedstraw, Galium aparine), corn (Zea mays), large (Lg) crabgrass (Digitaria sanguinalis), giant foxtail (Setaria faberii), johnsongrass (Sorghum halepense), lambsquarters (Chenopodium album), morningglory (Ipomoea coccinea), yellow nutsedge (Cyperus esculentus), pigweed (Amaranthus retroflexus), ragweed (common ragweed, Ambrosia elatior), soybean (Glycine max), barnyardgrass (Echinochloa crus-galli), oilseed rape (Brassica napus), waterhemp (common waterhemp, Amaranthus rudis), and velvetleaf (Abutilon theophrasti) were planted into a blend of loam soil and sand and treated preemergence with test chemicals formulated in a non-phytotoxic solvent mixture which included a surfactant.
(§4) At the same time, plants selected from these crop and weed species and also chickweed (common chickweed, Stellaria media), kochia (Kochia scoparia), and wild oat (Avena fatua), were planted in pots containing Redi-Earth® planting medium (Scotts Company, 14111 Scottslawn Road, Marysville, Ohio 43041) comprising spaghnum peat moss, vermiculite, wetting agent and starter nutrients and treated with postemergence applications of test chemicals formulated in the same manner. Plants ranged in height from 2 to 18 cm (1- to 4-leaf stage) for postemergence treatments. Treated plants and controls were maintained in a greenhouse for 13 to 15 days, after which time all species were compared to controls and visually evaluated. Plant response ratings, summarized in Table C, are based on a scale of 0 to 100 where 0 is no effect and 100 is complete control. A dash (-) response means no test result.

[14] = system: giant foxtail (Setaria faberii); assay: Test C postemergence; details: Setaria faberi, post-emergence, 336 h, Postemergence, scale 0 to 100, read-out: Plant response rating, Foxtail, Giant; for pest or weed control at 31 g/ha: 31 g ai/ha; for pest or weed control at 62 g/ha: 62 g ai/ha; for pest or weed control at 125 g/ha: 125 g ai/ha
Excerpt: as §3, §4

[15] = system: galium (catchweed bedstraw, Galium aparine); assay: Test C postemergence; details: Galium, post-emergence, 336 h, Postemergence, scale 0 to 100, read-out: Plant response rating, Galium; for pest or weed control at 31 g/ha: 31 g ai/ha; for pest or weed control at 62 g/ha: 62 g ai/ha; for pest or weed control at 125 g/ha: 125 g ai/ha
Excerpt: as §3, §4

[16] = 0 to 100 scale, read-out: Plant response rating, Pigweed
[17] = 0 to 100 scale, read-out: Plant response rating, Foxtail, Giant

Structure (SMILES) | pest or weed control at 250 g/ha [1] | pest or weed control at 250 g/ha [2] | pest or weed control at 250 g/ha [3] | plant injury at 250 g/ha [4] | pest or weed control at 500 g/ha [5, 16] | pest or weed control at 125 g/ha [6] | pest or weed control at 500 g/ha [6] | pest or weed control at 500 g/ha [7, 17] | pest or weed control at 125 g/ha [8] | pest or weed control at 500 g/ha [8] | Corn plant response rating (crop injury, 0 = no effect, 100 = complete kill) at 125 g/ha [9] | Corn plant response rating (crop injury, 0 = no effect, 100 = complete kill) at 500 g/ha [9] | pest or weed control at 125 g/ha [10] | pest or weed control at 500 g/ha [10] | pest or weed control at 125 g/ha [11] | pest or weed control at 500 g/ha [11] | plant injury at 125 g/ha [12] | plant injury at 500 g/ha [12] | pest or weed control at 31 g/ha [13] | pest or weed control at 62 g/ha [13] | other results
N#Cc1cccc(Oc2ncc(Cl)cn2)c1Oc1ncc(Cl)cn1 [Compound 3, 2,3-bis[(5-chloro-2-pyrimidinyl)oxy]benzonitrile] | 90% | 90% | 20% | 35% | 100% | 100% | 100% | 100% | 100% | 100% | 50% | 80% | 90% | 90% | 90% | 90% | 60% | 80% | 85% | 90% | pest or weed control at 125 g/ha [5, 16]: 100%; pest or weed control at 125 g/ha [7, 17]: 100%; pest or weed control at 125 g/ha [13]: 90%; pest or weed control at 250 g/ha ([13]; 250 g ai/ha): 98%; pest or weed control at 31 g/ha [14]: 5%; pest or weed control at 62 g/ha [14]: 15%; pest or weed control at 125 g/ha [14]: 15%; pest or weed control at 250 g/ha ([14]; 250 g ai/ha): 60%; pest or weed control at 31 g/ha [15]: 50%; pest or weed control at 62 g/ha [15]: 70%; pest or weed control at 125 g/ha [15]: 95%; pest or weed control at 250 g/ha ([15]; 250 g ai/ha): 95%
Fc1cccc(Oc2ncc(Cl)cn2)c1Oc1ncc(Cl)cn1 [Compound 21, 2,2′-[[3-fluoro-1,2-phenylene]bis(oxy)]bis[5-chloropyrimidine]] | 100% | 90% | 35% | 40% | 100% | 90% | 100% | 100% | 100% | 100% | 50% | 60% | 80% | 90% | 90% | 90% | 50% | 60% | 65% | 70% | pest or weed control at 125 g/ha ([5]; 0 to 100 scale (0 no effect, 100 complete control), read-out: Pigweed plant response rating): 100%; pest or weed control at 125 g/ha ([7]; 0 to 100 scale (0 no effect, 100 complete control), read-out: Foxtail, Giant plant response rating): 100%; pest or weed control at 125 g/ha [13]: 98%; pest or weed control at 16 g/ha ([14]; 16 g ai/ha): 5%; pest or weed control at 31 g/ha [14]: 5%; pest or weed control at 62 g/ha [14]: 20%; pest or weed control at 125 g/ha [14]: 20%; pest or weed control at 16 g/ha ([15]; 16 g ai/ha): 70%; pest or weed control at 31 g/ha [15]: 80%; pest or weed control at 62 g/ha [15]: 85%; pest or weed control at 125 g/ha [15]: 90%
